Assay [1] concerns the target T1, ternary complex consisting of GFP-ABD-L253P, Lifeact-mCherry, and actin (Homo sapiens, UniProt O15020, L253P).
T1 construct: L252P β-III-spectrin (human) ABD residues 1-284; expressed in transfected cells; host or cells: HEK293-6E, pTT5 vector, transient
Nature of the assay: Primary live-cell time-resolved FRET assay (GFP-ABD-L253P plus Lifeact-mCherry). The following applies: 12-point concentration response 0.01 to 30 μM, 1536-well plates, average of 3 plates; read-out: EC50 of FRET reduction. It is filed as cell-based.

Assay [2] concerns the target T2, GFP-ABD-L253P and mCherry (non-specific FRET) in HEK293-6E cells (Homo sapiens, UniProt O15020, L253P).
T2 construct: L252P β-III-spectrin (human) ABD residues 1-284; expressed in transfected cells; host or cells: HEK293-6E, pTT5 vector, transient
Briefly: Counter FRET assay, non-specific FRET (GFP-ABD-L253P plus mCherry). In kind it is cell-based. The following applies: swinholide A 3 μM. On the procedure:
At 2×10^6 cells/mL, HEK293-6E cells were transfected with GFP-ABD (2.4 μg), Lifeact-mCherry (2.4-16.8 μg), mCherry (1.2-16.8 μg), and/or pTT5 (0.8-17.6 μg) using the 293fectin protocol (Thermo Fisher Scientific) with 20 μg total DNA. The cells were harvested 24 hours later by centrifugation at 100×g for 5 min, and then washed twice with PBS. Cell viability and concentration were determined using trypan blue assay and a Countess cell counter (Invitrogen).
Using a Multidrop Combi liquid dispenser (Thermo Fisher Scientific), 10^6 cells/mL were dispersed into 1536-well and 384-well plates as 5 or 50 μL aliquots, respectively. For control and tool compound plates, 100 nL of DMSO or potential tool compound was loaded using the Mantis (Formulatrix). […] Two to three hours after sample loading, fluorescence lifetime measurements were performed using high-throughput fluorescence plate-readers provided by Photonic Pharma LLC (MN, USA), including one detecting fluorescence lifetime and another detecting fluorescence spectra, as described previously.
To develop a biosensor that monitors the binding of mutant L253P β-III-spectrin to actin filaments in live cells, a fluorescence resonance energy transfer (FRET) approach was tested. […] To measure the non-specific component to our FRET readout, we concurrently tested expression of mCherry in place of Lifeact-mCherry. […]

T1 sequence (O15020 1-284 L253P, one chain of several): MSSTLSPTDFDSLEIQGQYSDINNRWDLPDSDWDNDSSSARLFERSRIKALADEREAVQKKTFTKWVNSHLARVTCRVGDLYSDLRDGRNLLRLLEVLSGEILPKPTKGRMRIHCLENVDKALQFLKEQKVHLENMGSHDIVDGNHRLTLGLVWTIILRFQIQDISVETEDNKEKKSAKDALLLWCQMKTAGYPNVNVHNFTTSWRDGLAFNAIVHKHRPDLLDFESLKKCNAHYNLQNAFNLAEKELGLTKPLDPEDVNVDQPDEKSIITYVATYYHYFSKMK
T2 sequence (O15020 1-284 L253P): as the sequence (O15020 1-284 L253P, one chain of several) above

On to `CO[C@H]1C[C@H](CC[C@H](C)[C@H](O)[C@H](C)[C@H]2OC(=O)/C=C/C(C)=C/C[C@H](O)C[C@@H]3C=CC[C@@H](C[C@H](OC)[C@@H](C)[C@@H](O)C[C@@H](O)[C@H](C)[C@@H]([C@@H](C)[C@@H](O)[C@@H](C)CC[C@H]4C[C@H](OC)C[C@H](C)O4)OC(=O)/C=C/C(C)=C/C[C@H](O)C[C@@H]4C=CC[C@@H](C[C@H](OC)[C@@H](C)[C@@H](O)C[C@@H](O)[C@@H]2C)O4)O3)O[C@@H](C)C1` [swinholide A], for which the EC50 in assay [1] stood at 264 nM. In assay [2], the “effect on counter (non-specific) FRET” value was “did not significantly alter”.

The values above are taken from US11656221B2, “Methods to identify modulators of actin-binding proteins” (Regents of the University of Minnesota, priority 2019, dated 2023).
